Active and inactive are the calls of the source.
What was measured:
[1] = tested on: NCI-H460; assay: Antitumor activity against Lung-NSC NCI-H460 cells was evaluated; No biological activity; type: functional, cell-based; conditions: Homo sapiens
[2] = tested on: BXPC-3; assay: Antitumor activity against Pancreas-a BXPC-3 cells was evaluated; No biological activity; type: functional, cell-based; conditions: Homo sapiens
[3] = organism: Homo sapiens; assay: Antitumor activity against Pharynx-sq FADU cells was evaluated; No biological activity; type: functional
[4] = tested on: DU-145; assay: Antitumor activity against Prostate DU-145 cells was evaluated; No biological activity; type: functional, cell-based; conditions: Homo sapiens
[5] = tested on: KAT-4; assay: Antitumor activity against Thyroid ca KAT-4 cells was evaluated; No biological activity; type: functional, cell-based; conditions: Homo sapiens
[6] = tested on: SW 1736; assay: Antitumor activity against Thyroid ca SW 1736 cells was evaluated; No biological activity; type: functional, cell-based; conditions: Homo sapiens
[7] = Antitumor activity was evaluated by the growth inhibition of Lung-NSC NCI-H460 cells; Active; type: functional; conditions: Homo sapiens
[8] = Antitumor activity was evaluated by the lethal concentration of Lung-NSC NCI-H460 cells; Active; type: functional; conditions: Homo sapiens, read-out: LC50 (the source's name)
[9] = Antitumor activity was evaluated by the total growth inhibition of Lung-NSC NCI-H460 cells; Active; type: functional; conditions: Homo sapiens, NCI-H460, read-out: TGI50
[10] = Antitumor activity was evaluated by the growth inhibition of Pancreas-a BXPC-3 cells; Active; type: functional; conditions: Homo sapiens
[11] = Antitumor activity was evaluated by the lethal concentration of Pancreas-a BXPC-3 cells; Active; type: functional; conditions: Homo sapiens, read-out: LC50 (the source's name)
[12] = Antitumor activity was evaluated by the total growth inhibition of Pancreas-a BXPC-3 cells; Active; type: functional; conditions: Homo sapiens, BXPC-3, read-out: TGI50
[13] = organism: Homo sapiens; assay: Antitumor activity was evaluated by the growth inhibition of Pharynx-sq FADU cells; Active; type: functional
[14] = organism: Homo sapiens; assay: Antitumor activity was evaluated by the lethal concentration of Pharynx-sq FADU cells; Active; type: functional; conditions: read-out: LC50 (the source's name)
[15] = organism: Homo sapiens; assay: Antitumor activity was evaluated by the total growth inhibition of Pharynx-sq FADU cells; Active; type: functional; conditions: read-out: TGI50
[16] = Antitumor activity was evaluated by the growth inhibition of Prostate DU-145 cells; Active; type: functional; conditions: Homo sapiens
[17] = Antitumor activity was evaluated by the lethal concentration of Prostate DU-145 cells; Active; type: functional; conditions: Homo sapiens, read-out: LC50 (the source's name)
[18] = Antitumor activity was evaluated by the total growth inhibition of Prostate DU-145 cells; Active; type: functional; conditions: Homo sapiens, DU-145, read-out: TGI50
[19] = Antitumor activity was evaluated by the growth inhibition of Thyroid ca KAT-4 cells; Active; type: functional; conditions: Homo sapiens
[20] = Antitumor activity was evaluated by the lethal concentration of Thyroid ca KAT-4 cells; Active; type: functional; conditions: Homo sapiens, read-out: LC50 (the source's name)
[21] = Antitumor activity was evaluated by the total growth inhibition of Thyroid ca KAT-4 cells; Active; type: functional; conditions: Homo sapiens, KAT-4, read-out: TGI50
[22] = Antitumor activity was evaluated by the growth inhibition of Thyroid ca SW 1736 cells; Active; type: functional; conditions: Homo sapiens
[23] = Antitumor activity was evaluated by the lethal concentration of Thyroid ca SW 1736 cells; Active; type: functional; conditions: Homo sapiens, read-out: LC50 (the source's name)
[24] = Antitumor activity was evaluated by the total growth inhibition of Thyroid ca SW 1736 cells; Active; type: functional; conditions: Homo sapiens, SW-1736, read-out: TGI50

C[C@H]1C(COCc2ccccc2)OC(=O)[C@@H](O)[C@@H]1O (some centres undefined)
inactive: Activity [1] | Activity [2] | Activity [3] | Activity [4] | Activity [5] | Activity [6]

C[C@@H]1[C@@H](O)[C@H](O)C(=O)O[C@H]1[C@H]1COC(C)(C)O1
8.5 µg/mL: GI50 [22]
2.9 µg/mL: GI50 [7]
> 10000 µg/mL: CC50 [8] | CC50 [11] | CC50 [14] | CC50 [17] | CC50 [20] | CC50 [23]
3.7 µg/mL: GI50 [13]
2.7 µg/mL: GI50 [16]
> 10 µg/mL: GI50 [9] | GI50 [10] | GI50 [12] | GI50 [15] | GI50 [18] | GI50 [19] | GI50 [21] | GI50 [24]
